Laboratory results taken from ChEMBL document CHEMBL1142072, “Comparison of itraconazole and fluconazole treatments in a murine model of coccidioidal meningitis” (2007).
≈ marks a conversion by molar mass, not a printed value. Calls of active or inactive are those of the source. No cut-off for these calls is given here.

Columns and labels:
[1] = tested on: Mus musculus; test: Prolongation of survival in po dosed CD1 mouse infected with Coccidioides immitis Silveira administered after 3 days of infection after 12 days relative to control; format: functional, organism-based
[2] = tested on: Coccidioides immitis; test: Effect on fungal burdens in Coccidioides immitis Silveira infected CD1 mouse lung administered after 3 days of infection at 50 mg/kg, po bid after 12 days; format: functional, organism-based; design: dose 50 mg/kg
[3] = tested on: Coccidioides immitis; test: Antifungal activity against Coccidioides immitis by broth macrodilution method; format: functional; details: for MIC50 / MIC90: Coccidioides immitis
[4] = tested on: Coccidioides immitis; test: Reduction of fungal burden in Coccidioides immitis Silveira infected po dosed CD1 mouse brain, spinal cord, lung, kidney administered twice daily after 3 days of infection measured after 5 days relative to control; format: functional, organism-based
[5] = tested on: Coccidioides immitis; test: Effect on fungal burdens in Coccidioides immitis Silveira infected CD1 mouse spinal cord administered after 3 days of infection at 50 mg/kg, po bid after 12 days; format: functional
[6] = tested on: Mus musculus; test: Prolongation of survival in CD1 mouse infected with Coccidioides immitis Silveira administered after 3 days of infection at 25 mg/kg, po bid after 12 days relative to control; format: functional, organism-based; design: dose 25 mg/kg
[7] = tested on: Coccidioides immitis; test: Effect on fungal burdens in Coccidioides immitis Silveira infected CD1 mouse brain administered after 3 days of infection at 50 mg/kg, po bid after 12 days; format: functional
[8] = tested on: Mus musculus; test: Prolongation of survival in CD1 mouse infected with Coccidioides immitis Silveira administered after 3 days of infection at 50 mg/kg, po bid after 12 days relative to control; format: functional, organism-based; design: dose 50 mg/kg
[9] = tested on: Mus musculus; test: Prolongation of survival in CD1 mouse infected with Coccidioides immitis Silveira administered after 3 days of infection at 10 mg/kg, po bid after 12 days relative to control; format: functional, organism-based; design: dose 10 mg/kg
[10] = tested on: Coccidioides immitis; test: Effect on Coccidioides immitis Silveira infection in CD1 mouse brain, spinal cord and lungs administered after 3 days of infection at 50 mg/kg, po bid after 10 days; format: functional, organism-based; design: dose 50 mg/kg
[11] = tested on: Coccidioides immitis; test: Reduction of fungal burden in Coccidioides immitis Silveira infected CD1 mouse lung and kidney administered after 3 days of infection at 10 mg/kg, po bid after 5 days relative to control; format: functional, organism-based; design: dose 10 mg/kg

Compound	Activity [1]	Activity [2]	MFC50 [3] [µg/mL]	MFC90 [3] [µg/mL]	MIC50 [3] [µg/mL]	MIC90 [3] [µg/mL]	Activity [4]	Activity [5]	Activity [6]	Activity [7]	Activity [8]	Activity [9]	Activity [10]	Activity [11]	log10CFU/g [5]	log10CFU/g [7]
OC(Cn1cncn1)(Cn1cncn1)c1ccc(F)cc1F [FLUCONAZOLE]	Dose-dependent effect	Active	25 (≈ 81.6 µM)	>100	25 (≈ 81.6 µM)	> 100	Dose-dependent effect	Active	Active	Active	Active	Active	Active	inactive		
CCC(C)n1ncn(-c2ccc(N3CCN(c4ccc(OCC5COC(Cn6cncn6)(c6ccc(Cl)cc6Cl)O5)cc4)CC3)cc2)c1=O (configuration not stated) [ITRACONAZOLE]	Dose-dependent effect	Active	1.56 (≈ 2.21 µM)	6.25 (≈ 8.86 µM)	0.78 (≈ 1.11 µM)	1.56 (≈ 2.21 µM)	Dose-dependent effect		Active		Active	Active	Active		1.73	0.75
